Measurements: patent US8084395B2, “4-aza indole derivatives and their use as fungicides” (Syngenta Crop Protection, Inc., priority 2007, dated 2011)

SMILES | melting point [°C]
Cc1cnc2c(-c3ccc(F)cc3)c(-c3ccncc3)[nH]c2c1 [Example 1, 3-(4-Fluoro-phenyl)-6-methyl-2-pyridin-4-yl-1H-pyrrolo[3,2-b]pyridine] | 127 to 128
COCn1c(-c2ccncc2)c(-c2ccc(F)cc2)c2ncc(C)cc21 [Example 2, 3-(4-Fluoro-phenyl)-1-methoxymethyl-6-methyl-2-pyridin-4-yl-1H-pyrrolo[3,2-b]pyridine] | 208 to 209
COCOn1c(-c2ccncc2)c(-c2ccc(F)cc2)c2ncccc21 [Example 5, 3-(4-Fluoro-phenyl)-1-methoxymethoxy-2-pyridin-4-yl-1H-pyrrolo[3,2-b]pyridine] | 169 to 170
COC(=O)CC(=O)Nc1cc(-c2[nH]c3cc(C)cnc3c2-c2ccc(F)cc2)ccn1 [Example 8, N-{4-[3-(4-Fluoro-phenyl)-6-methyl-1H-pyrrolo[3,2-b]pyridin-2-yl]-pyridin-2-yl}-malonamic acid methyl ester] | 237 to 238
FCCn1c(-c2ccnc(Nc3cccc(F)c3)c2)c(-c2ccc(F)cc2)c2ncccc21 [Example 9, {4-[1-(2-Fluoro-ethyl)-3-(4-fluoro-phenyl)-1H-pyrrolo[3,2-b]pyridin-2-yl]-pyridin-2-yl}-(3-fluoro-phenyl)-amine] | 255 to 256
NC(=O)c1cc(-c2[nH]c3cccnc3c2-c2ccc(F)cc2)ccn1 [Example 10, 4-[3-(4-Fluoro-phenyl)-1H-pyrrolo[3,2-b]pyridin-2-yl]-pyridine-2-carboxylic acid amide] | 157 to 158
Fc1ccc(-c2c(-c3ccncn3)[nH]c3cccnc23)cc1 [Example 11, 3-(4-Fluoro-phenyl)-2-pyrimidin-4-yl-1H-pyrrolo[3,2-b]pyridine] | 169 to 170
COCC(C)Nc1nccc(-c2c(-c3ccc(F)cc3)c3ncccc3n2COC)n1 (centres unmarked) [Example 12, {4-[3-(4-Fluoro-phenyl)-1-methoxymethyl-1H-pyrrolo[3,2-b]pyridin-2-yl]-pyrimidin-2-yl}-(2-methoxy-1-methyl-ethyl)-amine] | 151 to 152
